According to publication PMC6588697, “Lugdunin amplifies innate immune responses in the skin in synergy with host- and microbiota-derived factors” (Nature Communications, 2019):
“And” between values parts separate entries of the source, which are not always exact repeats. Equal entries are not always repeated.

Key:
[1] = system: primary human neutrophils, erythrocytes, HL60; conditions: cited from earlier work
Source text: Lugdunin represents the founding member of the new class of cyclic thiazolidine-containing peptide antibiotics. […] In our previous work, we have shown that lugdunin treatment led to a strong reduction and even complete eradication of viable S. aure ...

mouse skin = test: Cytokines in mouse skin culture supernatant after epicutaneous treatment; format: in vivo, C57BL/6 WT, MyD88-ko, 5xTLR-ko mice; conditions: 1.5 µg lugdunin epicutaneous 24 h; for MIP-2 concentration in skin culture supernatant: Fig 2e; for IL-1α concentration in skin culture supernatant: Fig 2d
Method: (§1) Fig. 2 Induction of chemokine (C-X-C motif) ligand 8/macrophage inflammatory protein-2 (CXCL8/MIP-2) by lugdunin is TLR2/MyD88-dependent. a HEK-control or HEK-TLR2 cells were treated with 2 μM lugdunin for 5 h and subsequently the CXCL8 concentration in the supernatant was analyzed by LEGENDplex^TM (BioLegend). Shown is one representative experiment of three independent experiments with two technical replicates ± s.e.m. b HEK-control or HEK-TLR2 cells were treated with increasing concentrations of lugdunin for 5 h and subsequently expression of CXCL8 was analyzed and normalized to actin. Shown is one representative experiment of three independent experiments with two technical replicates ± s.e.m. c Schematic overview of the mouse experiments: 6–8-week-old female C5BL/6 WT, MyD88-knockout (ko), or 5xTLR-ko mice were epicutaneously treated with 1.5 µg lugdunin or phosphate-buffered saline (PBS) as a control. After 24 h, mice were euthanized, 4 mm skin punches were taken, and further cultured in vitro for 10 h followed by cytokine analysis of the culture supernatant by LEGENDplex^TM (BioLegend). d, e Shown are the mean concentrations of IL-1α (d) or MIP-2 (e) in the skin culture supernatant of two skin punches from four mice each ± s.e.m. Significant differences to control treatments were analyzed by an unpaired two-tailed t test (*P < 0.05; **P < 0.01; ***P < 0.001). f Representative MIP-2-stained paraffin-embedded mouse skin sections. Scale bar, 100 µM. Source data are provided as a Source Data file
For cytokine analysis from cell cultures, 10 µL of supernatant was used for cytokine analysis via the LEGENDplex^TM human inflammation panel (BioLegend). For cytokine analysis from mouse skin, 4 mm skin punches were cultured in an airlift system where only the dermis had access to medium for 10 h. Skin punches were cultured in RPMI containing 1% FCS (Biochrom/Merck Millipore), 1% penicillin and streptomycin (Gibco/Life Technologies) and 0.25 µg/mL amphotericin B (CELLnTEC). Ten microliters of a 3-fold dilution of culture supernatant was used for cytokine analysis via the LEGENDplex^TM mouse inflammation panel (BioLegend). Samples were acquired in duplicates using a BD LSRII flow cytometer (BD Biosciences) and LEGENDplex^TM Software (BioLegend).
For IL-1α analysis, 100 µL of cell culture supernatant was analyzed via ELISA (R&D Systems) according to manufacturer’s instruction. For MIP-2 analysis, 100 µL of a 5-fold dilution from skin cultures supernatant was used and analyzed via ELISA (R&D Systems) according to the manufacturer’s instruction. For LL-37 ELISA, ELISA plates (Nunc) were coated overnight at 4 °C with 100 µL of cell culture supernatant or 2-fold dilutions of LL-37 starting from 8 µg/mL. The next day, the plate was washed three times using PBS + 0.5% BSA + 0.05% Triton X-100, followed by incubation with 100 µL primary antibody against hCAP18/LL-37 (HycultBiotech, Cat#HM2071, 1:120 in PBS + 0.5% BSA + 0.05% Triton X-100) at 37 °C for 1 h. After washing, incubation with 100 µL secondary antibody (Cell Signaling, Cat#7076S, 1:3000 in PBS + 0.5% BSA + 0.05% Triton X-100) followed at 37 °C for 1 h. Subsequently, plates were washed and 100 µL TMB substrate solution (Cell Signaling) was added. Reaction was stopped with 50 µL 2 N H2SO4 and absorbance at 450 nm was measured using a Fluoroskan II (Labsystems).
To analyze the immune cell composition and cytokines in the skin, 15 µL containing 1.5 μg lugdunin or PBS as a control were epicutaneously applied for 24 h on the shaved back skin of C57BL/6 WT/MYD88-ko/5xTLR-ko mice. After 24 h, mice were euthanized and relevant skin areas or 4 mm skin punches were removed for immune cell analysis and LEGENDplex^TM (BioLegend) cytokine analysis. […]
55 c: Shown are the mean concentrations of the indicated cytokines in the supernatant of
56 the organ skin culture of two skin punches from four mice each +/- s.e.m. […]
61 Source data are provided as a Source Data file.

HEK293 cells = test: CXCL8 release by HEK-control cells (LEGENDplex); format: cell-based, human; conditions: lugdunin 2 µM, 5 h, two technical replicates, Fig 2a
Method: as §1, with “After 24 h, mice were euthanized, 4 mm skin punches were taken, and further cultured in vitro for 10 h followed by cytokine analysis of the culture supernatant by LEGENDplex^TM (BioLegend). d, e Shown are the mean concentrations of IL-1α (d) or MIP-2 (e) in the skin culture supernatant of two skin punches from four mice each ± s.e.m.” left out, “Scale bar, 100 µM. Source data are provided as a Source Data file” left out
Supplementary Figure 2: CXCL8 controls and other cytokines in mouse skin 46 a: HEK-control cells or HEK -TLR2 cells were treated with 100 ng/mL Pam2Cys for 5 47 hours and subsequently the CXCL8 concentration in the supernatant was analyzed. […]

HNEpCs = test: Cytokine release into HNEpC supernatant (LEGENDplex / ELISA); format: cell-based, human; conditions: 5 h, lugdunin 2 µM or Pam2Cys 100 ng/mL, two technical replicates, Fig 1f
[2] = 5xTLR-ko mice, punches cultured 10 h, single punches
[3] = MyD88-ko mice, punches cultured 10 h, single punches

## Lugdunin
[1]
  lysis of primary human neutrophils, erythrocytes or HL60 (in words): did neither cause lysis
Mouse skin; [2]
  MIP-2 concentration in skin culture supernatant: reduced
  IL-1α concentration in skin culture supernatant: still able to induce
Mouse skin; [3]
  MIP-2 concentration in skin culture supernatant: completely impaired
  IL-1α concentration in skin culture supernatant: still able to induce
Mouse skin; WT mice, punches cultured 10 h, single punches
  MIP-2 concentration in skin culture supernatant: induced
Mouse skin; WT mice, skin punches cultured 10 h, single punches (rows)
  IL-1α concentration in skin culture supernatant: induced
HEK293 cells
  CXCL8 concentration in supernatant: 39.328 and 39.600
HNEpCs
  CXCL8 concentration in supernatant: 421.035 and 417.001
